Results as given in article PMC10764104, “Discovery of Molecular Glue Degraders via Isogenic Morphological Profiling” (ACS Chemical Biology, 2023).

How the values were obtained:
Type in all cases: cell-based
GSPT2 [1] = molecular target: T1, GSPT2 (Homo sapiens, UniProt Q8IYD1+Q96SW2); experiment: Western blot analysis of GSPT2 degradation in HEK293T cells; settings: 0 to 10 μM, 16 h
T1 construct: endogenous in cells; host or cells: RKO WT or RKO CRBN KO
Experimental: (§1) Figure 3 FL2-14 is a selective GSPT2 molecular glue degrader. (A) Structure of FL2-14 comprising fluorosulfate scaffold FL2 (black) and tail group modification 14 (blue). (B) DMSO-normalized quantitative proteomics after 16 h of treatment with FL2-14 (10 μM) in RKO WT (n = 2). […] (C) Structural alignment of AlphaFold models of GSPT1 (AF-P15170-F1-model_v4 in gray) and GSPT2 (AF-Q8IYD1-F1-model_v4 in blue). (D) Validation of GSPT2 degradation by FL2-14. […] (E) Dose–response of FL2-14 in RKO and HEK293T cells. Cells were treated with the FL2-14 (0 to 10 μM) for 16 h. (F) Degradation of GSPT2^WT or GSPT2^G566N. […]
spectra were searched against the human proteome (Canonical, reviewed, 20 304 sequences) and appended known contaminants and streptavidin, with a maximum of two allowable miscleavage sites. The search was performed with full tryptic digestion. […] Peptide spectrum matches (PSMs) with precursor isolation interference values of > 70, average TMTpro reporter ion S/N < 10 and SPS Mass Matches < 65 % were excluded from quantification. Both unique and razor peptides were used for TMT quantification. […] Protein ratios are directly calculated from the grouped protein abundances using an ANOVA hypothesis test. Adjusted p‐values are calculated using the Benjamini‐Hochberg method. […]

IKZF1 = molecular target: T2, IKZF1 (Homo sapiens, UniProt Q13422); experiment: Western blot analysis of IKZF1 degradation in MV4.11 cells; settings: 16 h
T2 construct: endogenous in cells; host or cells: MV4.11
T2 sequence (Q96SW2 whole entry partner): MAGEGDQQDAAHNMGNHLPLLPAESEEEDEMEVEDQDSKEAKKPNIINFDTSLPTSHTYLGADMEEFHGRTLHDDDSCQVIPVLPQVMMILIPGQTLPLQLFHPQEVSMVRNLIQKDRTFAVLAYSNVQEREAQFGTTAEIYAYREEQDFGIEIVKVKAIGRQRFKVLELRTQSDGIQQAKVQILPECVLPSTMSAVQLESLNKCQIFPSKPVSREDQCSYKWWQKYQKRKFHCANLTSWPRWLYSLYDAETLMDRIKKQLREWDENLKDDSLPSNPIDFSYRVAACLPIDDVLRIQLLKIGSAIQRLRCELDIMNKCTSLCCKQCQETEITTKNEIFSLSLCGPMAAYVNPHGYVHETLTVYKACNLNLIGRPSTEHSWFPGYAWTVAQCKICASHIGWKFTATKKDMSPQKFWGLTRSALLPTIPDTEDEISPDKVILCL
T2 sequence (Q16531 2-1140 partner limits assumed): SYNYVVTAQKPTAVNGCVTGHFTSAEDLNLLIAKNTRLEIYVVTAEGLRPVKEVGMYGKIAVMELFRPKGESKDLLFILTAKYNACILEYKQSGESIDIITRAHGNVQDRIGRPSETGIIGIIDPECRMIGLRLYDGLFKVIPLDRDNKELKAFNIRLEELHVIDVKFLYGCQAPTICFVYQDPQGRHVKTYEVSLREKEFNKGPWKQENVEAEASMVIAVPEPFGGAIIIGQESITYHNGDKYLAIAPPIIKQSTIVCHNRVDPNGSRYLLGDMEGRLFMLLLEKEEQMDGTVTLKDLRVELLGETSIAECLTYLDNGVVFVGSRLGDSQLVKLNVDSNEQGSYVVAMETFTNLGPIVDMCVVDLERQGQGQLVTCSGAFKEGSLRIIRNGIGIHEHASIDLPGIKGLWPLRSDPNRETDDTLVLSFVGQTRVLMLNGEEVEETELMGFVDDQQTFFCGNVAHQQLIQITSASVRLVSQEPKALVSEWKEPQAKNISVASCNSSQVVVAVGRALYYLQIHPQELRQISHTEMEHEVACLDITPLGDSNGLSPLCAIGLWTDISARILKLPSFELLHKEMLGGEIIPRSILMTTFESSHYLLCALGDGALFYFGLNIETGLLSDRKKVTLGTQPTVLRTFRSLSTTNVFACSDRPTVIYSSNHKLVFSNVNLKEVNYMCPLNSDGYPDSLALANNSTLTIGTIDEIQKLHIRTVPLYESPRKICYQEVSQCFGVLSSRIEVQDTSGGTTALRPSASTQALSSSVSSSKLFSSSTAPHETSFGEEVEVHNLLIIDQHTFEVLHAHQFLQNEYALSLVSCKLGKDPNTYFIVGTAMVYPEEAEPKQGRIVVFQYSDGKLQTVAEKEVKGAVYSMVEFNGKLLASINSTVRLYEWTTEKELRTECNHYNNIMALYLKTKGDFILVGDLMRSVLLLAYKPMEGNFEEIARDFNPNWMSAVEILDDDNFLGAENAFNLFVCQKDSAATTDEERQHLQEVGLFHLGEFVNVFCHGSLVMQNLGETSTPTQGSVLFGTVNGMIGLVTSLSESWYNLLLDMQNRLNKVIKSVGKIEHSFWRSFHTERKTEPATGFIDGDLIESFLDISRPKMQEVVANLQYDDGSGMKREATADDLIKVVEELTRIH
T2 sequence (Q13422 whole entry): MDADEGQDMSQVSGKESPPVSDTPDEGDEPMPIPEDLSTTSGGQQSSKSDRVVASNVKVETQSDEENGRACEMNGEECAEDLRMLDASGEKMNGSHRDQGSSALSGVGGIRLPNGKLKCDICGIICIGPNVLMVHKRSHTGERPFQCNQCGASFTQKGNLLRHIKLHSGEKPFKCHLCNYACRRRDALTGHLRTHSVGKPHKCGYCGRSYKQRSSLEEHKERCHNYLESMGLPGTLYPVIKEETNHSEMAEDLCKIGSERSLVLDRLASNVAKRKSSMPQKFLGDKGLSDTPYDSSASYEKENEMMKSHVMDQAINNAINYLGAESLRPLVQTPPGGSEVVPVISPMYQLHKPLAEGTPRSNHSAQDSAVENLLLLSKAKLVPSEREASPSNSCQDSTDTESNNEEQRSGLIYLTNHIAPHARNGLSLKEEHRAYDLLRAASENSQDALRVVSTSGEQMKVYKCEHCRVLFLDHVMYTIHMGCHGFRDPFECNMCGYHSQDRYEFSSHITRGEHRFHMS

GSPT2 [2] = molecular target: T1, GSPT2; experiment: Western blot analysis of GSPT1 and GSPT2 degradation in RKO WT or CRBN KO cells
Experimental: as §1, with “(A)” for “Figure 3 FL2-14 is a selective GSPT2 molecular glue degrader. (A)”
Analysis of targeted protein degradation of GSPT1 and GSPT2 via western blot For degradation assays 800 000 RKO WT or CRBN KO cells were seeded 1 day prior to the treatment in 6 well plates.
Then, cells were treated with 10 µM of the compounds for 16 hours if not otherwise stated. Cells were harvested, lysed for 30 min at 37°C in lysis buffer (1x PBS, 1% SDS, 2 mM MgCl2, 1x Halt Protease inhibitor cocktail, 50 Units Benzonase) and cleared for 30 min at 18 000 x g at 4°C. Protein concentration was determined with the Pierce 660 nm Protein Assay using the Ionic Detergent Compatibility Reagent (Thermo Scientific). 10 µg total proteome were subjected to western blot analysis by adding 4x Bolt™ LDS Sample Buffer (Thermo Scientific). Samples were boiled at 95°C for 5 min and subjected to gel electrophoresis with Bolt™ 4‐12% Bis‐Tris Plus Gels (Thermo Scientific) with Bolt™ MES SDS Running Buffer (Thermo Scientific). Membranes were blocked with 5% fat‐free milk in TBS‐T (20 mM Tris, 150 mM NaCl, 0.1% Tween, pH 7.6) for 1 h at room temperature and washed subsequently 3x 5 min with TBS‐
T. Afterwards, they were incubated for 1 h at room temperature with either GSPT1 antibody (Abcam ab49878, rabbit, […]
rabbit, 1:10 000), CRBN (Cell Signaling Technologies, CST71810S, rabbit, 1:1000), or GAPDH (SantaCruz sc‐47724, mouse, 1:1 000). Followed by washing 3x 5 min with TBS‐T and incubation for 1 h at room temperature with either Goat ANTI‐RABBIT IgG StarBright™ Blue 700 (Bio‐Rad, #12004162, 1:10 000) or Goat anti‐Mouse IgG (H+L) Cross‐ Adsorbed Secondary Antibody, DyLight™ 800 (Bio‐Rad, STAR117D800GA, 1:10 000) fluorophore‐conjugated

T1 sequence (Q8IYD1 whole entry): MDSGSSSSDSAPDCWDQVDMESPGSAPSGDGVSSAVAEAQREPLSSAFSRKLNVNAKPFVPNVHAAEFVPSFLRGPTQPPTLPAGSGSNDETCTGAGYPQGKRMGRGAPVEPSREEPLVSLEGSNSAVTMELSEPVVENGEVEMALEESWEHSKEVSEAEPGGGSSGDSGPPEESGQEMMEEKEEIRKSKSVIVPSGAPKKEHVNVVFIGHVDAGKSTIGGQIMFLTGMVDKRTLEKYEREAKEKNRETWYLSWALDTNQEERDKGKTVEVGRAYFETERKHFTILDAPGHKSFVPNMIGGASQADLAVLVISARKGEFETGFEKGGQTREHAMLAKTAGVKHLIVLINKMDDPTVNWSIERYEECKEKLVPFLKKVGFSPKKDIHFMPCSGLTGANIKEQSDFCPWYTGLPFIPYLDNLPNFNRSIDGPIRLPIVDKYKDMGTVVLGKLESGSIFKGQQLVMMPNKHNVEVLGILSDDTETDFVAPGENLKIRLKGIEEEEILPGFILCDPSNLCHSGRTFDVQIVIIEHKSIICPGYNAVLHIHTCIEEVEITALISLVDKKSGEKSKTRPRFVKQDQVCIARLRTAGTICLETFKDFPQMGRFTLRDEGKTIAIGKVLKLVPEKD
T1 sequence (Q96SW2 whole entry): as the sequence (Q96SW2 whole entry partner) above
T1 sequence (Q16531 2-1140 partner limits assumed): as the sequence (Q16531 2-1140 partner limits assumed) above

What does the source list for CN(Cc1ncc(C2CC2)o1)S(=O)(=O)Oc1ccc(Nc2ccc3c(c2)C(=O)N(C2CCC(=O)NC2=O)C3=O)cc1 (stereo not drawn) [FL2-14]?
GSPT2 degradation in HEK293T cells (GSPT2 [1]): could also be observed in HEK293T cells; IKZF1 degradation (IKZF1): did not induce degradation of IKZF1; treatment time at which GSPT2 degradation is apparent (GSPT2 [2]; 10 µM, time-course in RKO and HEK293T cells): 5 h; GSPT2 degradation in RKO CRBN KO cells (GSPT2 [2]; RKO CRBN KO, 10 μM, 16 h): completely abrogated; degradation of GSPT2 versus GSPT1 (Western blot) (GSPT2 [2]; RKO WT, 10 μM, 16 h): preferentially degraded GSPT2 over GSPT1; concentration range of GSPT2 degradation (dose-response) (GSPT2 [2]; RKO, 0 to 10 μM, 16 h): submicromolar range
